Measurements taken from patent US20260174855A1 (priority 2022, published 2026).

What was measured:
rats = assay: warm water tail withdrawal assay (antinociception); details: for % MPE (at 0.1 mg/kg): 0.1 mg/kg i.v., mean (95% confidence interval); for ED50: Rattus norvegicus, iv
[1] = for NorBUP in fetal brains or maternal plasma: 1 or 3 mg/kg/day s.c. minipump, GD 9-20
hDOR = hDOR (Homo sapiens, UniProt P41143); assay: [35S]GTPγS binding, G-protein activation; type: biochemical; details: for type of activity at hDOR: 1 μM, no activation; for Emax at 1 µM: hDOR, determined from single-concentration (1 μM) experiments, read-out: Emax (% of vehicle)
Sequence of hDOR (P41143 whole entry): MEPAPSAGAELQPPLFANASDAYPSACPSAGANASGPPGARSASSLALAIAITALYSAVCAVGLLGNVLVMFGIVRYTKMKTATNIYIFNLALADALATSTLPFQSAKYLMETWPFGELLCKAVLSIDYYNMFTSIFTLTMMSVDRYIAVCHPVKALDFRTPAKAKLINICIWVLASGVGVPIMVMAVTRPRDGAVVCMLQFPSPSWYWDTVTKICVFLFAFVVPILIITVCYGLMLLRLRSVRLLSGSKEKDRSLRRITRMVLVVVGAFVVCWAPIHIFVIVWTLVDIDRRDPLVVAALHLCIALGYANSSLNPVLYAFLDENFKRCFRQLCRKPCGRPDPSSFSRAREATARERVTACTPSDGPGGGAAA

hMOR = hMOR (Homo sapiens, UniProt P35372); assay: biochemical; details: read-out: Emax (% of vehicle)
Sequence of hMOR (P35372 whole entry): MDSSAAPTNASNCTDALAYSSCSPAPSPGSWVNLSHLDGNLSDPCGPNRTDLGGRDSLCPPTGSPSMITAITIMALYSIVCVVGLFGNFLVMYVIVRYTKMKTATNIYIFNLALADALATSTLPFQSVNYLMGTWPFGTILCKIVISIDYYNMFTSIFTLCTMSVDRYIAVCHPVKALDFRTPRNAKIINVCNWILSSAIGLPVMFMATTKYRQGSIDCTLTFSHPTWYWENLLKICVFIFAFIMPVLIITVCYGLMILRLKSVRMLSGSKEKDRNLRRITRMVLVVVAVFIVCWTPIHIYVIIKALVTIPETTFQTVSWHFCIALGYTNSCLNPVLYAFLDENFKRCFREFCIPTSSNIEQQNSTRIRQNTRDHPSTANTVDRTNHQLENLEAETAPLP

[2] = 4 mg/kg i.v.; data not shown

Compound	% MPE (at 0.1 mg/kg) (rats; 10 minutes)	% MPE (at 0.1 mg/kg) (rats; 60 minutes)	ED50 (rats; 10 min)	ED50 (rats; 1 h)	NorBUP in fetal brains or maternal plasma [1]	area under the curve vs. BUP ([1]; maternal plasma, data not shown)	type of activity at hDOR (hDOR)	Emax at 1 µM (hDOR)	Emax (hMOR)	area under the NorBUP glucuronide curve, BUP versus BUP-D2 group [2]
[2H]C([2H])(C1CC1)N1CC[C@]23c4c5ccc(O)c4O[C@H]2[C@@]2(OC)CC[C@@]3(C[C@@H]2[C@](C)(O)C(C)(C)C)C1C5 [BUP-D2, (4aS,6R,7R,7aR,12bS)-3-(cyclopropylmethyl-d2)-6-((S)-2-hydroxy-3,3-dimethylbutan-2-yl)-7-methoxy-1,2,3,4,5,6,7,7a-octahydro-4a,7-ethano-4,12-methanobenzofuro[3,2-e]isoquinolin-9-ol]	84.4 (43.5-125.2) % MPE	97.9 (89.1-106.8) % MPE	0.021 mg/kg	0.018 mg/kg	detected no NorBUP	significantly greater	neutral antagonists of hDORs	107%	–	–
C[C@@H](NC(=O)[C@@H](N)Cc1ccc(O)cc1)C(=O)NCC(=O)N(C)[C@@H](Cc1ccccc1)C(=O)NCCO [DAMGO]	–	–	–	–	–	–	–	–	308%	–
CO[C@@]12CC[C@@]3(C[C@@H]1[C@](C)(O)C(C)(C)C)C1Cc4ccc(O)c5c4[C@@]3(CCN1CC1CC1)[C@H]2O5 [BUP, buprenorphine]	90.1 (68.8-111.4) % MPE	96.8 (83.2-110.5) % MPE	0.025 mg/kg	0.021 mg/kg	detected no NorBUP	–	neutral antagonists of hDORs	114%	–	significantly greater
